The compounds below were run against EGFR (human) (UniProt P00533). Conditions: a431.
Chain of EGFR (human) (P00533 whole entry, looked up): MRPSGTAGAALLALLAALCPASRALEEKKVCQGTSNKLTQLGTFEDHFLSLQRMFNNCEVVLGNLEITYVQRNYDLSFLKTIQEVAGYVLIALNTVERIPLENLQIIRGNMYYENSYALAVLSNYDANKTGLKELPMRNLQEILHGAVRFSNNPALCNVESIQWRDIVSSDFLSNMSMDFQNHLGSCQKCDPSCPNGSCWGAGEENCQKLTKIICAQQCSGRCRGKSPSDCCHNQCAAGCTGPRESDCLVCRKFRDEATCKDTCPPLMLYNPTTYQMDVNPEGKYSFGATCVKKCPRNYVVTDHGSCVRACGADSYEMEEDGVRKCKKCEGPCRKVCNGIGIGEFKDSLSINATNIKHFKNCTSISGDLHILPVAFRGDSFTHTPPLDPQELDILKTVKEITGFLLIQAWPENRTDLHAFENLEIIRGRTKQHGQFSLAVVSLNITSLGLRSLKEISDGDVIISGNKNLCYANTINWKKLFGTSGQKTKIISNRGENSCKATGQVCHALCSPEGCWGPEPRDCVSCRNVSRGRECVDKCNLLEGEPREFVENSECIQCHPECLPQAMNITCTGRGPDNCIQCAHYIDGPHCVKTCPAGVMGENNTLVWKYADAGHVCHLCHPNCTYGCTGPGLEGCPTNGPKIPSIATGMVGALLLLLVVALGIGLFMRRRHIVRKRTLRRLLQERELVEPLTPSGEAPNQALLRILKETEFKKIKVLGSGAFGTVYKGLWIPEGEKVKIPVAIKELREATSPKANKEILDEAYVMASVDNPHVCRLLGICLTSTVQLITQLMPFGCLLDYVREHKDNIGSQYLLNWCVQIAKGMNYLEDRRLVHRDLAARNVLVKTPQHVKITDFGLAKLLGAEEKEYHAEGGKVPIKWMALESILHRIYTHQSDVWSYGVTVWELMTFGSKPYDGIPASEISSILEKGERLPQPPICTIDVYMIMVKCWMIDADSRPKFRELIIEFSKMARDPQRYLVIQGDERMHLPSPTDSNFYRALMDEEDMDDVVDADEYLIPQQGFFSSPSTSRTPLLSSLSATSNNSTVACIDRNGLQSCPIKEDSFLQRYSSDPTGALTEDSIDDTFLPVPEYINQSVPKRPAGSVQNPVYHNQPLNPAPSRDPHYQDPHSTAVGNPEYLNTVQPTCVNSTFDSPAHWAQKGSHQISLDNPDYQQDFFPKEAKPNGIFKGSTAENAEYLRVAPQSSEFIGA

Row | SMILES | IC50
1 | C/C(=C/c1coc2nc(N)nc(N)c12)c1ccc(-c2ccccc2)cc1.C/C(=C\c1coc2nc(N)nc(N)c12)c1ccc(-c2ccccc2)cc1 | > 50 µM
2 | COc1ccccc1/C(C)=C/c1coc2nc(N)nc(N)c12 | > 50 µM
3 | C/C(=C/c1coc2nc(N)nc(N)c12)c1ccc(Cl)cc1.C/C(=C\c1coc2nc(N)nc(N)c12)c1ccc(Cl)cc1 | > 50 µM
4 | C/C(=C/c1coc2nc(N)nc(N)c12)c1ccc(Cl)c(Cl)c1.C/C(=C\c1coc2nc(N)nc(N)c12)c1ccc(Cl)c(Cl)c1 | > 50 µM
5 | C/C(=C\c1coc2nc(N)nc(N)c12)c1ccc(Cl)c(Cl)c1Cl | > 50 µM
6 | C/C(=C/c1coc2nc(N)nc(N)c12)c1ccc(Cl)c(Cl)c1Cl.C/C(=C\c1coc2nc(N)nc(N)c12)c1ccc(Cl)c(Cl)c1Cl | > 50 µM
7 | COc1cc(/C(C)=C/c2coc3nc(N)nc(N)c23)cc(OC)c1OC.COc1cc(/C(C)=C\c2coc3nc(N)nc(N)c23)cc(OC)c1OC | > 50 µM
8 | C/C(=C/c1coc2nc(N)nc(N)c12)c1ccc2ccccc2c1.C/C(=C\c1coc2nc(N)nc(N)c12)c1ccc2ccccc2c1 | > 50 µM
9 | C/C(=C\c1coc2nc(N)nc(N)c12)c1ccc2c(c1)Cc1ccccc1-2 | > 50 µM

Further lines, results first:

Row | IC50 | SMILES
10 | > 50 µM | COc1ccc(OC)c(/C(C)=C/c2coc3nc(N)nc(N)c23)c1
11 | > 50 µM | C/C(=C\c1coc2nc(N)nc(N)c12)c1cc(Cl)ccc1Cl
12 | > 50 µM | C/C(=C\c1coc2nc(N)nc(N)c12)c1cccc(Cl)c1
13 | > 50 µM | C/C(=C/c1coc2nc(N)nc(N)c12)c1cc(Cl)ccc1Cl
14 | > 50 µM | C/C(=C\c1coc2nc(N)nc(N)c12)c1ccc(Cl)cc1Cl
